Read-outs that look alike come from different tables or passages of the source.
How the values were obtained:
[1] = molecular target: T1, IRAK4 (Homo sapiens (Human), UniProt Q9NWZ3); assay: hPBMC IRAK4 degradation flow assay; assay type: cell-based; settings: hPBMC monocyte
Description: hPBMC IRAK4 degradation flow assay. Frozen PBMCs were thawed into RPMI with 10% FBS and allowed to recover. On the same day as thawed, PBMCs were plated in 96 well plate, 90 uL per well. Compound plates were prepared and a 10 point, 5-fold dilution was performed with a final DMSO concentration of 0.1%. Compound 10 μL per well was added, sealed and incubated at 37° C., 5% C02 for 20 hours (for 4 hour treatment, compounds were prepared and added the following day). […] Cells were spun down and washed two times with PBS/0.5% BSA, aspirated to pellet and placed into −80° C. freezer until further processing for flow. On the flow run day, PBMC plates were thawed and samples were transferred to PCR plates. The pre-perm staining cocktail (CD3 Ax488/CD8 BUV805/CD14 BUV395/CD16/56 BV711/CD19 BV785) was added to samples and incubated for 30 minutes at room temperature. Samples were washed two times and permeabilized with methanol for 10 minutes at 4° C. […] Samples were washed two times with PBS/BSA and run on a BD LSRFortessa. Mononuclear cells are gated by SSCH/FSCH and single cells. Monocytes are then gated through CD14 positive gate and lymphocytes are gated through CD14 negative gate. To determine absolute DC50s and max degradation values, MFI values were normalized to DMSO max and 20 hour 10 μM min control. Twenty hour dose curves were calculated using a 4 parameter logistic regression curve fit, no constraints (Top doses were removed if hook effects were observed and the bottom was constrained to 0).

[2] = molecular target: T1, IRAK4; assay: IRAK4 MSD degradation in OCI-LY10; assay type: cell-based
Method in brief: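 Remaining IRAK4 quantified by electrochemiluminescent MSD sandwich assay with two anti-IRAK4 antibodies. Compounds were dosed as 8 concentrations in 1:3 steps from a 1 to 10 μM final top on OCI-LY10 cells, incubated 4 to 24 h at 37° C. under 5% CO2. DC50 fitted with a three-parameter logistic curve.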

[3] = system: OCI-LY10; assay: CTG Cell Viability Assay - OCI-LY10; assay type: cell-based, human; settings: OCI-LY10, 4 days, read-out: CTG Cell Viability Assay - OCI-LY10: Average external-IC50
Method in brief: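 Viability read by CellTiter-Glo luminescence after 4 days at 37° C under 5% CO2 with compound (top 10 μM final, 1:3 steps, 9 doses, DMSO 0.2%). Three-parameter logistic fit gave IC50.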

[4] = 20 hrs, read-out: IRAK4 degradation in hPBMC monocyte: DC50
[5] = OCI-LY10, 4 hrs, read-out: IRAK4 MSD degradation in OCI-LY10 at 4 hrs: DC50
[6] = 20 hr, flow assay, read-out: IRAK4 degradation in hPBMC monocyte at 20 hr: Average external Abs DC50
[7] = OCI-LY10, 4 hrs, MSD, read-out: IRAK4 MSD degradation in OCI-LY10 at 4 hrs: Average external-Abs DC50
[8] = OCI-LY10, 24 hrs, MSD, read-out: IRAK4 MSD degradation in OCI-LY10 at 24 hrs: Average external-Abs DC50

T1 sequence (Q9NWZ3 whole entry): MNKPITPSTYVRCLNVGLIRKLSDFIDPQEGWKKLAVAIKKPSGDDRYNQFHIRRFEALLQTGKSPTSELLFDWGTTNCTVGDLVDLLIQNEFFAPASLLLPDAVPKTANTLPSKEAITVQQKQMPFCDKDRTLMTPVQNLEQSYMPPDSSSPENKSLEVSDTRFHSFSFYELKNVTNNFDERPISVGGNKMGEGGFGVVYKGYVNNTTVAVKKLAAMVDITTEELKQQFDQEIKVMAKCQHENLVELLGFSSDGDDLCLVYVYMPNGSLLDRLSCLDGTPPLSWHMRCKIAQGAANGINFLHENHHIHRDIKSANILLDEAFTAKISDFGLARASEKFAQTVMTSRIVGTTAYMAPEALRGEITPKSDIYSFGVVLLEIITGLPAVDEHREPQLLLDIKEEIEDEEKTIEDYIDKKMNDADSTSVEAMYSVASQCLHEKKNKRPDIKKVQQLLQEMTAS

| Compound | IC50 ([3]; Homo sapiens, OCI-Ly10, 96 h) | DC50 [2, 7] | DC50 [2, 8] | also measured |
| --- | --- | --- | --- | --- |
| CN(C[C@H]1OC[C@H](n2cc(NC(=O)c3cnn4ccc(N5C[C@H]6C[C@@H]5CO6)nc34)c(C(F)F)n2)CO1)C1CCN(Cc2cccc3c2n(C)c(=O)n3C2CCC(=O)NC2=O)CC1 (stereo partly drawn) [I-507, N-[3-(difluoromethyl)-1-[2-[[[1-[[1-(2,6-dioxo-3-piperidyl)-3-methyl-2-oxo-benzimidazol-4-yl]methyl]-4-piperidyl]-methyl-amino]methyl]-1,3-dioxan-5-yl]pyrazol-4-yl]-5-[(1R,4R)-2-oxa-5-azabicyclo [2.2.1]heptan-5-yl] pyrazolo[1,5-a] pyrimidine-3-carboxamide] |  |  |  | DC50 [1, 4]: < 0.01 µM |
| Cn1c(=O)n(C2CCC(=O)NC2=O)c2cccc(C#CCOC3CCN(C[C@H]4CC[C@H](n5cc(NC(=O)c6cnn7ccc(N8CCOC(C)(C)C8)nc67)c(C(F)F)n5)CC4)CC3)c21 (stereo partly drawn) [I-533] |  |  |  | DC50 [1, 4]: < 0.01 µM; DC50 [2, 5]: 0.01 to 0.1 µM |
| Cn1c(=O)n(C2CCC(=O)NC2=O)c2cccc(CCCN3CCC4(CC3)CCN(C(=O)C3CCC(n5cc(NC(=O)c6cnn7ccc(N8C[C@H]9C[C@@H]8CO9)nc67)c(C(F)F)n5)CC3)CC4)c21 (stereo partly drawn) [I-435] |  |  |  | DC50 [1, 6]: < 0.01 µM |
| Cn1c(=O)n(C2CCC(=O)NC2=O)c2cccc(CCCC3CCN(C[C@H]4CC[C@H](C5N=C(NC(=O)c6cnn7ccc(N8CCOC9(CCC9)C8)nc67)C(C(F)F)=N5)CC4)CC3)c21 (stereo partly drawn) [I-538] |  |  |  | DC50 [1, 4]: < 0.01 µM; DC50 [2, 5]: 0.01 to 0.1 µM |
| Cn1c(=O)n(C2CCC(=O)NC2=O)c2cccc(CCCCC3CCN(Cc4ccc(-n5cc(NC(=O)c6cnn7ccc(N8C[C@H]9C[C@@H]8CO9)nc67)c(C(F)F)n5)cc4)CC3)c21 (stereo partly drawn) [I-436] |  |  |  | DC50 [1, 6]: 0.1 to 1 µM |
| C[C@@H](CCc1cccc2c1n(C)c(=O)n2C1CCC(=O)NC1=O)OC1CCN(C[C@H]2CC[C@H](n3cc(NC(=O)c4cnn5ccc(N6C[C@H]7C[C@@H]6CO7)cc45)c(C(F)F)n3)CC2)CC1 (stereo partly drawn) [I-545] |  |  |  | DC50 [1, 4]: < 0.01 µM; DC50 [2, 5]: < 0.01 µM |
| Cn1c(=O)n(C2CCC(=O)NC2=O)c2cccc(CCCOC3CCN(C[C@H]4CC[C@H](n5cc(NC(=O)c6cnn7ccc(N8CCOC9(CCC9)C8)nc67)c(C(F)F)n5)CC4)CC3)c21 (stereo partly drawn) [I-542] |  |  |  | DC50 [1, 4]: < 0.01 µM; DC50 [2, 5]: 0.01 to 0.1 µM |
| Cn1c(=O)n(C2CCC(=O)NC2=O)c2cccc(CN3CC4(CCN(C(=O)[C@H]5CC[C@H](n6cc(NC(=O)c7cnn8ccc(N9C[C@H]%10C[C@@H]9CO%10)nc78)c(C(F)F)n6)CC5)CC4)C3)c21 (stereo partly drawn) [I-429] |  |  |  | DC50 [1, 6]: < 0.01 µM |
| CC[C@@H]1[C@H](F)C(=O)N[C@@H]1COc1ncc(C#C[C@H]2CC[C@H](CN3CCC(OCCCc4ccc5c(c4)n(C)c(=O)n5C4CCC(=O)NC4=O)CC3)CC2)c2cc(C(N)=O)c(OC)cc12 (stereo partly drawn) [I-187] | > 1 µM | > 1 µM | < 0.01 µM |  |
| O=C1CCC(n2c3cccc(CCCOC4CCN(C[C@H]5CC[C@H](n6cc(NC(=O)c7cnn8ccc(N9CCC(O)CC9)nc78)c(C(F)F)n6)CC5)CC4)c3c3cccnc32)C(=O)N1 (stereo partly drawn) [I-151] | > 1 µM | 0.01 to 0.1 µM |  |  |
| CC[C@H]1C(COc2ncc(C#CC3CCC(CN(C)CCCOCCCc4cccc5c4n(C)c(=O)n5C4CCC(=O)NC4=O)CC3)c3cc(C(N)=O)c(OC)cc23)NC(=O)[C@H]1F (stereo partly drawn) [I-184] | > 1 µM | 0.01 to 0.1 µM | 0.01 to 0.1 µM |  |
| O=C1CCC(N2C(=O)c3cccc(NC4CCN(C[C@H]5CC[C@H](n6cc(NC(=O)c7cnn8ccc(N9CCOCC9)nc78)c(C(F)F)n6)CC5)CC4)c3C2=O)C(=O)N1 (stereo partly drawn) [I-218] | > 1 µM | 0.1 to 1 µM | 0.1 to 1 µM |  |
| CN(CCCc1cccc2c1n(C)c(=O)n2C1CCC(=O)NC1=O)C[C@H]1CC[C@H](n2cc(NC(=O)c3coc(-c4ccnc(NCC5CC5)c4)n3)c(C(F)F)n2)CC1 (stereo partly drawn) [I-130] | > 1 µM | < 0.01 µM |  |  |
| CN(C(=O)c1cnn2ccc(N3CCOCC3)nc12)c1cn([C@H]2CC[C@H](CN3CCN(Cc4ccc(COc5cccc6c5CN(C5CCC(=O)NC5=O)C6=O)cc4)CC3)CC2)nc1C(F)F (stereo partly drawn) [I-503] | < 0.05 µM |  |  | DC50 [2, 5]: > 1 µM; DC50 ([2]; OCI-LY10, 24 hrs, read-out: IRAK4 MSD degradation in OCI-LY10 at 24 hrs: DC50): > 1 µM |
| CN(CCN1CCO[C@H](CCNc2cccc3c2C(=O)N(C2CCC(=O)NC2=O)C3=O)C1)C[C@H]1CC[C@H](n2cc(NC(=O)c3cnn4ccc(N5C[C@H]6C[C@@H]5CO6)nc34)c(C(F)F)n2)CC1 (stereo partly drawn) [I-340] | 0.1 to 0.5 µM | 0.1 to 1 µM | 0.01 to 0.1 µM |  |
| NC[C@H]1CC[C@H](n2cc(NC(=O)c3cnn4ccc(N5CCOCC5)nc34)c(C(F)F)n2)CC1 [I-313, N-[l-[4-(aminomethyl)cyclohexyl]-3-(difluoromethyl)pyrazol-4-yl]-5-morpholino-pyrazolo [1,5-a]pyrimidine-3-carboxamide] | > 1 µM | > 1 µM | > 1 µM |  |
| COc1cc(C(=O)NCCCCCCN(C)C[C@H]2CC[C@H](n3cc(NC(=O)c4coc(-c5ccnc(NCC6CC6)c5)n4)c(C(F)F)n3)CC2)ccc1NC(=O)[C@@H]1N[C@@H](CC(C)(C)C)[C@](C#N)(c2ccc(Cl)cc2F)[C@H]1c1cccc(Cl)c1F [I-140] |  | > 1 µM | > 1 µM | IC50 [3]: > 1 µM |
| Cn1c(=O)n(C2CCC(=O)NC2=O)c2cccc(CN3CCC4(CC3)CCN(C[C@H]3CC[C@H](n5cc(NC(=O)c6coc(-c7ccnc(NCC8CC8)c7)n6)c(C(F)F)n5)CC3)CC4)c21 (stereo partly drawn) [I-245] | < 0.05 µM | 0.01 to 0.1 µM |  |  |
| CC[C@@H]1[C@H](F)C(=O)N[C@@H]1COc1ncc(C#CC2CCN(CCCC3CCN(Cc4ccc5c(c4)n(C)c(=O)n5C4CCC(=O)NC4=O)CC3)CC2)c2cc(C(N)=O)c(OC)cc12 (stereo partly drawn) [I-193] | > 1 µM | 0.1 to 1 µM | 0.01 to 0.1 µM |  |
| O=C1CCC(n2c3cccc(CCCOC4CCN(C[C@H]5CC[C@H](n6cc(NC(=O)c7cnn8ccc(N9CCOCC9)nc78)c(C(F)F)n6)CC5)CC4)c3c3cccnc32)C(=O)N1 (stereo partly drawn) [I-196] | > 1 µM | 0.01 to 0.1 µM |  |  |
| CN(CCCOCCCc1cccc2c1C(=O)N(C1CCC(=O)NC1=O)C2=O)C[C@H]1CC[C@H](n2cc(NC(=O)c3coc(-c4ccnc(NCC5CC5)c4)n3)c(C(F)F)n2)CC1 (stereo partly drawn) [I-167] | 0.1 to 0.5 µM | 0.1 to 1 µM |  |  |
| O=C1CCC(N2Cc3c(NCCOCC4CCN(C[C@H]5CC[C@H](n6cc(NC(=O)c7cnn8ccc(N9C[C@H]%10C[C@@H]9CO%10)nc78)c(C(F)F)n6)CC5)CC4)cccc3C2=O)C(=O)N1 (stereo partly drawn) [I-374] | > 1 µM | > 1 µM | 0.01 to 0.1 µM |  |
| Cn1c(=O)n(C2CCC(=O)NC2=O)c2cccc(C(=O)N3CCC(OC[C@H]4CC[C@H](n5cc(NC(=O)c6cnn7ccc(N8C[C@H]9C[C@@H]8CO9)nc67)c(C(F)F)n5)CC4)CC3)c21 (stereo partly drawn) [I-427] |  |  |  | DC50 [1, 6]: 0.1 to 1 µM |
| O=C1CCC(N2C(=O)c3cccc(NCCc4ccc(CCNC[C@H]5CC[C@H](n6cc(NC(=O)c7cnn8ccc(N9C[C@H]%10C[C@@H]9CO%10)nc78)c(C(F)F)n6)CC5)cc4)c3C2=O)C(=O)N1 (stereo partly drawn) [I-346, N-[3-(difluoromethyl)-1-[4-[[2-[4-[2-[[2-(2,6-dioxo-3-piperidyl)-1,3-dioxo-isoindolin-4-yl]amino]ethyl]phenyl]ethylamino]methyl]cyclohexyl]pyrazol-4-yl]-5-[(1R,4R)-2-oxa-5-azabicyclo[2.2.1]heptan-5-yl]pyrazolo[1,5-a]pyrimidine-3-carboxamide] | < 0.05 µM | > 1 µM |  |  |
| CN(CCCOCCCc1cccc2c1n(C)c(=O)n2C1CCC(=O)N(C)C1=O)C[C@H]1CC[C@H](n2cc(NC(=O)c3coc(-c4ccnc(NCC5CC5)c4)n3)c(C(F)F)n2)CC1 (stereo partly drawn) [I-246] | > 1 µM | 0.1 to 1 µM |  |  |

— patent publication US11352350B2, “IRAK degraders and uses thereof” (Kymera Therapeutics, Inc., priority 2018, dated 2022)
